Experimental data as given in patent US20110190269A1, “GAMMA SECRETASE MODULATORS” (priority 2010, published 2011).

Test system: γ-secretase
Experiment: Cellular γ-secretase assay (inhibition of Aβ42 secretion)
Type: cell-based
Conditions: human neuroglioma H4 cells overexpressing human APP, 22 hrs incubation
Protocol: Human neuroglioma H4 cells overexpressing human APP were plated at 30,000 cells/well/[…] in 96-well plates in IMDM media containing 10% FCS, […] Hygromycin B and incubated for 2 h at 37° C., 5% CO2 prior to adding test compounds.
Compounds for testing were dissolved in 100% Me2SO yielding in a 10 mM stock solution. Typically […] of these solutions were further diluted in 1000 μl of IMDM media (w/o FCS). Subsequent 1:1 dilutions gave a ten point dose response curve. 100 μl of each dilution was added to the cells in 96-well plates. Appropriate controls using vehicle only and reference compound were applied to this assay. The final concentration of Me2S0 was 0.4%.
After incubation for 22 hrs at 37° C., 5% CO2, 50 μl supernatant was transferred into round-bottom 96-well polypropylene plates for detection of Aβ42. 50 μl assay buffer (50 mM Tris/Cl, pH 7.4, 60 mM NaCl, 0.5% BSA, 1% TWEEN 20) was added to the wells followed by the addition of 100 μl of detection antibody (ruthenylated BAP15 0.0625 μg/ml in assay buffer). 50 μl of a premix of capture antibody (biotinylated 6E10 antibody, 1 μg/ml) and Steptavidin-coated magnetic beads (Dynal M-280, 0.125 mg/ml) were preincubated for 1 hr at room temperature before adding the assay plates. Assay plates were incubated on a shaker for 3 hrs at room temperature and finally read in the Bioveris M8 Analyser according to the manufacturer's instructions (Bioveris).
IC50 values for inhibition of Aβ42 secretion were calculated by nonlinear regression fit analysis using XLfit 4.0 software (IDBS).

Row | Structure (SMILES) | EC50
1 | COc1cc(Nc2nc3n(n2)CCCN3c2ccc(F)c(F)c2)ccc1-n1cnc(C)c1 [Example 143, 4-(3,4-Difluorophenyl)-N-(3-methoxy-4-(4-methyl-1H-imidazol-1-yl)phenyl)-4,5,6,7-tetrahydro-[1,2,4]triazolo[1,5-a]pyrimidin-2-amine] | 185 nM
2 | COc1cc(Nc2nc3nc(C)cc(-c4ccc(F)c(Cl)c4)n3n2)ccc1-n1cnc(C)c1 [Example 93, 7-(3-Chloro-4-fluorophenyl)-N-(3-methoxy-4-(4-methyl-1H-imidazol-1-yl)phenyl)-5-methyl-[1,2,4]triazolo[1,5-a]pyrimidin-2-amine] | 68 nM
3 | COc1cc(Nc2nc3c(-c4ccc(F)cc4)cc(C)cn3n2)ccc1-n1cnc(C)c1 [Example 46, [8-(4-Fluoro-phenyl)-6-methyl-[1,2,4]triazolo[1,5-a]pyridin-2-yl]-[3-methoxy-4-(4-methyl-imidazol-1-yl)-phenyl]-amine] | 180 nM
4 | COc1cc(Nc2nc3c(-c4ccc(Cl)cc4)cc(C)c(C(C)(C)O)n3n2)ccc1-n1cnc(C)c1 [Example 144, 2-{8-(4-Chloro-phenyl)-2-[3-methoxy-4-(4-methyl-imidazol-1-yl)-phenylamino]-6-methyl-[1,2,4]triazolo[1,5-a]pyridin-5-yl}-propan-2-ol] | 69 nM
5 | COc1cc(Nc2nc3c(-c4ccc5c(c4)OCCN5C)cc(C)cn3n2)ccc1-n1cnc(C)c1 [Example 89, N-(3-Methoxy-4-(4-methyl-1H-imidazol-1-yl)phenyl)-6-methyl-8-(4-methyl-3,4-dihydro-2H-benzo[b][1,4]oxazin-7-yl)-[1,2,4]triazolo[1,5-a]pyridin-2-amine] | 290 nM
6 | COc1cc(Nc2nc3c(-c4ccc(F)c(F)c4)cccn3n2)ccc1-c1ccnc(C)c1 [Example 128, 8-(3,4-Difluorophenyl)-N-(3-methoxy-4-(2-methylpyridin-4-yl)phenyl)-[1,2,4]triazolo[1,5-a]pyridin-2-amine] | 30 nM
7 | COc1cc(Nc2nc3nc(C(F)(F)F)cc(-c4ccc(Cl)cc4)n3n2)ccc1-n1cnc(C)c1 [Example 20, [7-(4-Chloro-phenyl)-5-trifluoromethyl-[1,2,4]triazolo[1,5-a]pyrimidin-2-yl]-[3-methoxy-4-(4-methyl-imidazol-1-yl)-phenyl]-amine acetate] | 107 nM
8 | COc1cc(Nc2nc3c(-c4ccc(F)c(F)c4)cc(F)cn3n2)ccc1-n1cnc(C)c1 [Example 85, 8-(3,4-Difluorophenyl)-6-fluoro-N-(3-methoxy-4-(4-methyl-1H-imidazol-1-yl)phenyl)-[1,2,4]triazolo[1,5-a]pyridin-2-amine] | 32 nM
9 | COc1cc(Nc2nc3c(-c4ccc(F)cc4C)cc(C)cn3n2)ccc1-n1cnc(C)c1 [Example 66, [8-(4-Fluoro-2-methyl-phenyl)-6-methyl-[1,2,4]triazolo[1,5-a]pyridin-2-yl]-[3-methoxy-4-(4-methyl-imidazol-1-yl)-phenyl]-amine] | 238 nM
10 | CCOC(=O)N1CC=C(c2cc(C)cn3nc(Nc4ccc(-n5cnc(C)c5)c(OC)c4)nc23)CC1 [Example 107, Ethyl 4-(2-(3-methoxy-4-(4-methyl-1H-imidazol-1-yl)phenylamino)-6-methyl-[1,2,4]triazolo[1,5-a]pyridin-8-yl)-5,6-dihydropyridine-1(2H)-carboxylate] | 356 nM
11 | COc1cc(Nc2nc3cc(C)cc(C)n3n2)ccc1-n1cnc(C)c1 [Example 14, (5,7-Dimethyl-[1,2,4]triazolo[1,5-a]pyridin-2-yl)-[3-methoxy-4-(4-methyl-imidazol-1-yl)-phenyl]-amine] | 679 nM
12 | COc1cc(Nc2nc3cncc(-c4ccc(F)cc4)n3n2)ccc1-n1cnc(C)c1 [Example 9, [5-(4-Fluoro-phenyl)-[1,2,4]triazolo[1,5-a]pyrazin-2-yl]-[3-methoxy-4-(4-methyl-imidazol-1-yl)-phenyl]-amine] | 200 nM
13 | COc1cc(Nc2nc3n(n2)CCOC3c2ccccc2)ccc1-n1cnc(C)c1 (centres unmarked) [Example 142, N-(3-methoxy-4-(4-methyl-1H-imidazol-1-yl)phenyl)-8-phenyl-6,8-dihydro-5H-[1,2,4]triazolo[5,1-c][1,4]oxazin-2-amine] | 232 nM
14 | COc1cc(Nc2nc3c(N4CCC(C(F)(F)F)CC4)cccn3n2)ccc1-n1cnc(C)c1 [Example 140, N-(3-methoxy-4-(4-methyl-1H-imidazol-1-yl)phenyl)-8-(4-(trifluoromethyl)piperidin-1-yl)-[1,2,4]triazolo[1,5-a]pyridin-2-amine] | 180 nM
15 | COc1cc(Nc2nc3c(CN4CCOCC4)cnc(-c4ccccc4)n3n2)ccc1-n1cnc(C)c1 [Example 29, [3-Methoxy-4-(4-methyl-imidazol-1-yl)-phenyl]-(8-morpholin-4-ylmethyl-5-phenyl-[1,2,4]triazolo[1,5-c]pyrimidin-2-yl)-amine] | 1270 nM
16 | COc1ccc2nc(Nc3ccc(-n4cnc(C)c4)c(OC)c3)nn2n1 [Example 42, [3-Methoxy-4-(4-methyl-imidazol-1-yl)-phenyl]-(6-methoxy-[1,2,4]triazolo[1,5-b]pyridazin-2-yl)-amine] | 1320 nM
17 | COc1cc(Nc2nc3n(n2)C(c2ccc(F)cc2)CN(CC(F)(F)F)C3)ccc1-n1cnc(C)c1 (centres unmarked) [Example 58, 5-(4-fluorophenyl)-N-(3-methoxy-4-(4-methyl-1H-imidazol-1-yl)phenyl)-7-(2,2,2-trifluoroethyl)-5,6,7,8-tetrahydro-[1,2,4]triazolo[1,5-a]pyrazin-2-amine] | 538 nM
18 | COc1cc(Nc2nc3nc4c(c(-c5ccccc5)n3n2)CCCC4)ccc1-n1cnc(C)c1 [Example 21, [3-Methoxy-4-(4-methyl-imidazol-1-yl)-phenyl]-(9-phenyl-5,6,7,8-tetrahydro-[1,2,4]triazolo[5,1-b]quinazolin-2-yl)-amine acetate] | 201 nM
19 | COc1cc(Nc2nc3ncc(C#N)c(-c4ccccc4F)n3n2)ccc1-n1cnc(C)c1 [Example 69, 7-(2-Fluorophenyl)-2-(3-methoxy-4-(4-methyl-1H-imidazol-1-yl)phenylamino)-[1,2,4]triazolo[1,5-a]pyrimidine-6-carbonitrile] | 485 nM
20 | COc1cc(Nc2nc3c(-c4ccc(F)c(F)c4)cc(C4CC4)cn3n2)ccc1-n1cnc(C)c1 [Example 146, [6-Cyclopropyl-8-(3,4-difluoro-phenyl)-[1,2,4]triazolo[1,5-a]pyridin-2-yl]-[3-methoxy-4-(4-methyl-imidazol-1-yl)-phenyl]-amine] | 69 nM
21 | COc1cc(Nc2nc3c(-c4ccc(F)c(F)c4)cc(C)cn3n2)ccc1-n1cnc(C)c1 [Example 63, [8-(3,4-Difluoro-phenyl)-6-methyl-[1,2,4]triazolo[1,5-a]pyridin-2-yl]-[3-methoxy-4-(4-methyl-imidazol-1-yl)-phenyl]-amine] | 10 nM
22 | CCCc1ncc(CN2CCOCC2)c2nc(Nc3ccc(-n4cnc(C)c4)c(OC)c3)nn12 [Example 32, [3-Methoxy-4-(4-methyl-imidazol-1-yl)-phenyl]-(8-morpholin-4-ylmethyl-5-propyl-[1,2,4]triazolo[1,5-c]pyrimidin-2-yl)-amine] | 864 nM
23 | COc1cc(Nc2nc3cncc(-c4ccccc4)n3n2)ccc1-n1cnc(C)c1 [Example 13, [3-Methoxy-4-(4-methyl-imidazol-1-yl)-phenyl]-(5-phenyl-[1,2,4]triazolo[1,5-a]pyrazin-2-yl)-amine] | 100 nM
24 | COc1cc(Nc2nc3c(-c4ccc(Cl)cc4)cccn3n2)ccc1-c1ccnc(C)c1 [Example 127, [8-(4-Chloro-phenyl)-[1,2,4]triazolo[1,5-a]pyridin-2-yl]-[3-methoxy-4-(2-methyl-pyridin-4-yl)-phenyl]-amine] | 39 nM
25 | COc1cc(Nc2nc3n(n2)C(c2ccc(Cl)cc2)CC(=O)N3)ccc1-n1cnc(C)c1 (centres unmarked) [Example 61, 7-(4-Chloro-phenyl)-2-[3-methoxy-4-(4-methyl-imidazol-1-yl)-phenylamino]-6,7-dihydro-4H-[1,2,4]triazolo[1,5-a]pyrimidin-5-one] | 831 nM
26 | COc1cc(Nc2nc3c(-c4ccc(F)cc4Cl)cccn3n2)ccc1-n1cnc(C)c1 [Example 131, 8-(2-chloro-4-fluorophenyl)-N-(3-methoxy-4-(4-methyl-1H-imidazol-1-yl)phenyl)-[1,2,4]triazolo[1,5-a]pyridin-2-amine] | 38 nM
27 | Cc1cc(-c2ccc(Nc3nc4c(-c5ccc(F)cc5Cl)cccn4n3)cc2)nc(C)n1 [Example 115, 8-(2-chloro-4-fluorophenyl)-N-(4-(2,6-dimethylpyrimidin-4-yl)phenyl)-[1,2,4]triazolo[1,5-a]pyridin-2-amine] | 242 nM
28 | COc1cc(Nc2nc3cccc(C(F)(F)F)n3n2)ccc1-n1cnc(C)c1 [Example 17, [3-Methoxy-4-(4-methyl-imidazol-1-yl)-phenyl]-(5-trifluoromethyl-[1,2,4]triazolo[1,5-a]pyridin-2-yl)-amine] | 285 nM
29 | COc1cc(Nc2nc3c(-c4ccc(F)c(Cl)c4)cccn3n2)ccc1-n1cnc(C)c1 [Example 130, 8-(3-chloro-4-fluorophenyl)-N-(3-methoxy-4-(4-methyl-1H-imidazol-1-yl)phenyl)-[1,2,4]triazolo[1,5-a]pyridin-2-amine] | 16 nM
